Consider 20 molecules from US12410171B2, “Tropomyosin receptor kinase (TRK) degradation compounds and methods of use” (Cullgen (Shanghai), Inc., priority 2020, dated 2025).

In this assay the target is T1, TPM3-TRKA fusion protein (Homo sapiens, UniProt P04629).
T1 construct: The resulted chimeric proteins always retain the kinase domain of TRK proteins; TPM3 (fusion partner, N-terminal part of tropomyosin alpha-3, P06753); endogenous in cells; host or cells: KM12 colon cancer cells; the other entry of the earlier key: TPM3 (P06753, Tropomyosin alpha-3 chain)
T1 sequence (P04629 with tags, fused parts or gaps): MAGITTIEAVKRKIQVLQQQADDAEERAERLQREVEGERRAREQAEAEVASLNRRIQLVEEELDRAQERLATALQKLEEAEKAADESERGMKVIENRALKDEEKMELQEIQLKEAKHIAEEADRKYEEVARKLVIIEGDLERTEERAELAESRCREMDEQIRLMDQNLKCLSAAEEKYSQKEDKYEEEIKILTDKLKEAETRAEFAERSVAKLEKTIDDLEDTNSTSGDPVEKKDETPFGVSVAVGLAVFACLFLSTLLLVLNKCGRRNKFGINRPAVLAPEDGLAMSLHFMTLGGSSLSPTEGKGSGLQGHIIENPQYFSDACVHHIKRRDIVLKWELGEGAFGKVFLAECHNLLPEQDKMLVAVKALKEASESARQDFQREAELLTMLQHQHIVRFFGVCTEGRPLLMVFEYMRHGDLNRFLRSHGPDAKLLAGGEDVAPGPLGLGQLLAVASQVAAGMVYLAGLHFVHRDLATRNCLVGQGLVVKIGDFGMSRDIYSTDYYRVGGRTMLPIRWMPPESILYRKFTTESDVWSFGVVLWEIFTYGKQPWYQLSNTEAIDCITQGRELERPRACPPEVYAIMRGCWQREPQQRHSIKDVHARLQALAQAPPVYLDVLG
The assay can be described thus: TPM3-TRKA fusion protein levels in KM12 cells (Western blot). In kind it is cell-based. To be noted: read-out: Degradation (at 10 nM). The method, boiled down:
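TPM3-TRKA levels were assessed by Western blot with chemiluminescent detection and band densitometry, after SDS-PAGE of BCA-normalized RIPA lysates. Before lysis, KM12 cells received DMSO, compounds or matched control compounds at concentrations including 0.1, 1, 10 and 100 nM and 0.4–30 nM. Exposures lasted 4 h, 8–16 h or 16 h.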
Background: A western blot detects proteins with antibodies after separation by electrophoresis.

The mark [1] stands for this setting: 16 h, TPM3-TRKA degradation in KM12 cells at 10 nM compound, category of percentage degradation.

Where two headings read alike, the source gives them in different places.

As for `O=C1CCC(N2C(=O)c3ccc(NCCCC(=O)N4CCN(c5cccc(-c6cnc7ccc(N8CCC[C@@H]8c8cccc(F)c8)nn67)n5)CC4)cc3C2=O)C(=O)N1` (stereo partly drawn) [TR-168, 2-(2,6-Dioxopiperidin-3-yl)-5-((4-(4-(6-(6-((R)-2-(3-fluorophenyl)pyrrolidin-1-yl)imidazo[1,2-b]pyridazin-3-yl)pyridin-2-yl)piperazin-1-yl)-4-oxobutyl)amino) isoindoline-1,3-dione], the percent degradation of TPM3-TRKA protein at 0.01 µM under setting [1] was above 80%.
Still for that read-out and setting: under `O=C1CCC(N2C(=O)c3ccc(NCCCC(=O)N4CCN(c5ccc(C(=O)Nc6n[nH]c7ccc(Cc8cc(F)cc(F)c8)cc67)c(NC6CCOCC6)c5)CC4)cc3C2=O)C(=O)N1` (centres unmarked) [TR-169, N-(5-(3,5-Difluorobenzyl)-1H-indazol-3-yl)-4-(4-(4-((2-(2,6-dioxopiperidin-3-yl)-1,3-dioxoisoindolin-S-yl)amino)butanoyl)piperazin-1-yl)-2-((tetrahydro-2/-pyran-4-yl)amino)benzamide] stands above 80%; under `O=C1CCC(N2C(=O)c3ccc(NCCCN4CCN(c5cccc(-c6cnc7ccc(N8CCC[C@@H]8c8cccc(F)c8)nn67)n5)CC4)cc3C2=O)C(=O)N1` (stereo partly drawn) [TR-171, 2˜ (2,6-Dioxopiperidin-3-yl)-5-((3-(4-(6-(6-((R)-2-(3-fluorophenyl)pyrrolidin-1-yl)imidazo[1,2-b]pyridazin-3-yl)pyridin-2-yl)piperazin-1-yl)propyl)amino) isoindoline-1,3-dione], above 80%.
For `O=C1CCC(N2C(=O)c3ccc(CCCN4CCN(c5cccc(-c6cnc7ccc(N8CCC[C@@H]8c8cccc(F)c8)nn67)n5)CC4)cc3C2=O)C(=O)N1` (stereo partly drawn) [TR-172, 2-(2,6-dioxopiperidin-3-yl)-5-(3-(4-(6-(6-((R)-2˜ (3-fluorophenyl)pyrrolidin-1-yl)imidazo[1,2-b]pyridazin-3-yl)pyridin-2-yl)piperazin-1-yl)propyl)isoindoline-1,3-dione], the percent degradation of TPM3-TRKA protein at 0.01 µM (KM12, 16 h) was above 80%.
Consider `O=C1CCC(N2C(=O)c3ccc(OCCN4CCN(c5cccc(-c6cnc7ccc(N8CCC[C@@H]8c8cccc(F)c8)nn67)n5)CC4)cc3C2=O)C(=O)N1` (stereo partly drawn) [TR-173, 2˜ (2,6-dioxopiperidin-3-yl)-5-(2-(4-(6-(6-((R)-2-(3-fluorophenyl)pyrrolidin-1-yl)imidazo[1,2-b]pyridazin-3-yl)pyridin-2-yl)piperazin-1-yl)ethoxy) isoindoline-1,3-dione], for which the percent degradation of TPM3-TRKA protein at 0.01 µM (KM12, 16 h) was above 80%.
Turning to `O=C1CCC(N2C(=O)c3ccc(NCCOCCN4CCN(c5cccc(-c6cnc7ccc(N8CCC[C@@H]8c8cccc(F)c8)nn67)n5)CC4)cc3C2=O)C(=O)N1` (stereo partly drawn) [TR-176, 2-(2,6-Dioxopiperidin-3-yl)-5-((2-(2-(4-(6-(6-((R)-2-(3-fluorophenyl)pyrrolidin-1-yl)imidazo[1,2-b]pyridazin-3-yl)pyridin-2-yl)piperazin-1-yl)ethoxy)ethyl)amino) isoindoline-1,3-dione], under setting [1], the percent degradation of TPM3-TRKA protein at 0.01 µM is above 80%.
On the same count and under the same terms, under `O=C1CCC(N2C(=O)c3ccc(NCCOCCOCCN4CCN(c5cccc(-c6cnc7ccc(N8CCC[C@H]8c8cccc(F)c8)nn67)n5)CC4)cc3C2=O)C(=O)N1` (stereo partly drawn) [TR-177, 2-(2,6-Dioxopiperidin-3-yl)-5-((2-(2-(2-(4-(6-(6-((S)-2-(3-fluorophenyl)pyrrolidin-1-yl)imidazo[1,2-b]pyridazin-3-yl)pyridin-2-yl)piperazin-1-yl)ethoxy)ethoxy)ethyl)amino) isoindoline-1,3-dione] stands above 80%.
Turning to `O=C1CCC(N2C(=O)c3ccc(N4CCC(N5CCN(c6cccc(-c7cnc8ccc(N9CCC[C@@H]9c9cccc(F)c9)nn78)n6)CC5)CC4)cc3C2=O)C(=O)N1` (stereo partly drawn) [TR-182, 2-(2,6-dioxopiperidin-3-yl)-5-(4-(4-(6-(6-((R)-2-(3-fluorophenyl)pyrrolidin-1-yl)imidazo[1,2-b]pyridazin-3-yl)pyridin-2-yl)piperazin-1-yl)piperidin-1-yl)isoindoline-1,3-dione], the percent degradation of TPM3-TRKA protein at 0.01 µM (KM12, 16 h) is above 80%.
On the same count and under the same terms, then `O=C1CCC(N2C(=O)c3ccc(N4CC(N5CCN(c6cccc(-c7cnc8ccc(N9CCC[C@@H]9c9cccc(F)c9)nn78)n6)CC5)C4)cc3C2=O)C(=O)N1` (stereo partly drawn) [TR-184, 2-(2,6-dioxopiperidin-3-yl)-5-(3-(4-(6-(6-((R)-2-(3-fluorophenyl)pyrrolidin-1-yl)imidazo[1,2-b]pyridazin-3-yl)pyridin-2-yl)piperazin-1-yl)azetidin-1-yl)isoindoline-1,3-dione], with above 80%.
For the molecule `O=C1CCC(N2Cc3cc(CCCN4CCN(c5cccc(-c6cnc7ccc(N8CCC[C@@H]8c8cccc(F)c8)nn67)n5)CC4)ccc3C2=O)C(=O)N1` (stereo partly drawn) [TR-186, 3-(5-(3-(4-(6-(6-((R)-2-(3-fluorophenyl)pyrrolidin-1-yl)imidazo[1,2-b]pyridazin-3-yl)pyridin-2-yl)piperazin-1-yl)propyl)-1-oxoisoindolin-2-yl)piperidine-2,6-dione], the percent degradation of TPM3-TRKA protein at 0.01 µM under setting [1] is above 80%.
Same read-out and setting: under `O=C1CCC(N2Cc3cc(C#CCN4CCN(c5cccc(-c6cnc7ccc(N8CCC[C@@H]8c8cccc(F)c8)nn67)n5)CC4)ccc3C2=O)C(=O)N1` (stereo partly drawn) [TR-188, 3-(5-(3-(4-(6-(6-((R)-2-(3-Fluorophenyl)pyrrolidin-1-yl)imidazo[1,2-b]pyridazin-3-yl)pyridin-2-yl)piperazin-1-yl)prop-1-yn-1-yl)-1-oxoisoindolin-2-yl)piperidine-2,6-dione] stands above 80%.
On the same count and under the same terms, then `O=C1CCC(N2Cc3ccc(NCC(=O)N4CCN(c5cccc(-c6cnc7ccc(N8CCC[C@@H]8c8cccc(F)c8)nn67)n5)CC4)cc3C2=O)C(=O)N1` (stereo partly drawn) [TR-189, 3-(6-((2-(4-(6-(6-((R)-2-(3-fluorophenyl)pyrrolidin-1-yl)imidazo[1,2-b]pyridazin-3-yl)pyridin-2-yl)piperazin-1-yl)-2-oxoethyl)amino)-1-oxoisoindolin-2-yl)piperidine-2,6-dione], with above 80%.
As to `O=C1CCC(N2Cc3cc(NCCN4CCN(c5cccc(-c6cnc7ccc(N8CCC[C@@H]8c8cccc(F)c8)nn67)n5)CC4)ccc3C2=O)C(=O)N1` (stereo partly drawn) [TR-191, 3-(5-((2-(4-(6-(6-((R)-2-(3-fluorophenyl)pyrrolidin-1-yl)imidazo[1,2-b]pyridazin-3-yl)pyridin-2-yl)piperazin-1-yl)ethyl)amino)-1-oxoisoindolin-2-yl)piperidine-2,6-dione], under setting [1], the percent degradation of TPM3-TRKA protein at 0.01 µM was above 80%.
Regarding `O=C1CCC(N2Cc3ccc(NCCN4CCN(c5cccc(-c6cnc7ccc(N8CCC[C@@H]8c8cccc(F)c8)nn67)n5)CC4)cc3C2=O)C(=O)N1` (stereo partly drawn) [TR-196, 3-(6-((2-(4-(6-(6-((R)-2-(3-fluorophenyl)pyrrolidin-1-yl)imidazo[1,2-b]pyridazin-3-yl)pyridin-2-yl)piperazin-1-yl)ethyl)amino)-1-oxoisoindolin-2-yl)piperidine-2,6-dione], the percent degradation of TPM3-TRKA protein at 0.01 µM under setting [1] lay within 50 to 80%.
On the same count and under the same terms, then `O=C1CCC(N2Cc3ccc(C#CC(=O)N4CCN(c5cccc(-c6cnc7ccc(N8CCC[C@@H]8c8cccc(F)c8)nn67)n5)CC4)cc3C2=O)C(=O)N1` (stereo partly drawn) [TR-202, 3-(6-(3-(4-(6-(6-((R)-2-(3-Fluorophenyl)pyrrolidin-1-yl)imidazo[1,2-b]pyridazin-3-yl)pyridin-2-yl)piperazin-1-yl)-3-oxoprop-1-yn-1-yl)-1-oxoisoindolin-2-yl)piperidine-2,6-dione], with 50 to 80%.
Still for that read-out and setting: under `O=C1CCC(N2Cc3cc(C#CC(=O)N4CCN(c5cccc(-c6cnc7ccc(N8CCC[C@@H]8c8cccc(F)c8)nn67)n5)CC4)ccc3C2=O)C(=O)N1` (stereo partly drawn) [TR-203, 3-(5-(3-(4-(6-(6-((R)-2-(3-fluorophenyl)pyrrolidin-1-yl)imidazo[1,2-b]pyridazin-3-yl)pyridin-2-yl)piperazin-1-yl)-3-oxoprop-1-yn-1-yl)-1-oxoisoindolin-2-yl)piperidine-2,6-dione] stands 50 to 80%; under `O=C1CCC(N2C(=O)c3ccc(CCN4CCN(c5cccc(-c6cnc7ccc(N8CCC[C@@H]8c8cccc(F)c8)nn67)n5)CC4)cc3C2=O)C(=O)N1` (stereo partly drawn) [TR-204, 2-(2,6-dioxopiperidin-3-yl)-5-(2-(4-(6-(6-((R)-2-(3-fluorophenyl)pyrrolidin-1-yl)imidazo[1,2-6]pyridazin-3-yl)pyridin-2-yl)piperazin-1-yl)ethyl)isoindoline-1,3-dione], above 80%.
Same read-out and setting: under `O=C1CCC(N2Cc3cc(C#CC4CCN(c5cccc(-c6cnc7ccc(N8CCC[C@@H]8c8cccc(F)c8)nn67)n5)CC4)ccc3C2=O)C(=O)N1` (stereo partly drawn) [TR-208, 3-(5-((1-(6-(6-((R)-2-(3-fluorophenyl)pyrrolidin-1-yl)imidazo[1,2-b]pyridazin-3-yl)pyridin-2-yl)piperidin-4-yl)ethynyl)-1-oxoisoindolin-2-yl)piperidine-2,6-dione] stands 50 to 80%; under `O=C1CCC(N2Cc3cc(NCC4CN(c5cccc(-c6cnc7ccc(N8CCC[C@@H]8c8cccc(F)c8)nn67)n5)C4)ccc3C2=O)C(=O)N1` (stereo partly drawn) [TR-210, 3-(5-(((1-(6-(6-((R)-2-(3-Fluorophenyl)pyrrolidin-1-yl)imidazo[1,2-b]pyridazin-3-yl)pyridin-2-yl)azetidin-3-yl)methyl)amino)-1-oxoisoindolin-2-yl)piperidine-2,6-dione], 50 to 80%.
Take `COc1ccc(CN(CCN2CCN(c3cccc(-c4cnc5ccc(N6CCC[C@@H]6c6cccc(F)c6)nn45)n3)CC2)c2ccc3c(c2)C(=O)N(C2CCC(=O)NC2=O)C3=O)cc1` (stereo partly drawn) [TR-214, 2-(2,6-Dioxo-3-piperidyl)-5-(2-(4-(6-(6-((2R)-2-(3-fluorophenyl)pyrrolidin-1-yl)imidazo[1,2-b]pyridazin-3-yl)-2-pyridyl)piperazin-1-yl)ethyl-((4-methoxyphenyl)methyl)amino) isoindoline-1,3-dione]: the percent degradation of TPM3-TRKA protein at 0.01 µM under setting [1] is below 50%.
